Measurements as given in US4778797A, “Organo-silicon compounds, process for the manufacture of same, and anti-tumor agent comprising the compound” (Sanwa Kagaku Kenkyusho Co., Ltd., priority 1984, dated 1988).
Converted amounts (≈) assume the structure as drawn. Read-outs that look alike come from different tables or passages of the source.

What was measured:
Colon-38 carcinoma = test: Anti-tumor action to Colon-38 carcinoma; format: in vivo, BDF1 mice; details: oral, tumor weight at 28th day
Description: 0.02 ml of 10(W/V)% cell suspension prepared from a solid cancer cell (Colon-38 carcinoma) were transplanted under skin of BDF1 mice (20-21 g, age of about 5 weeks), and each of testing compounds was orally dosed to the mice at 1st, 5th and 9th day after the transplantation. A major and minor axes of the cancerous tumor were measured at 11th, 14th, 21st, 25th and 28th day after the transplantation to calcurate volume of the tumor in accordance with the following.
At 28th day from the transplantation, the mice were killed and each of the cancerous tumors was extracted to measure its weight and to determine an inhibitation ratio in comparison with a non-treated control group.

B-16 melanoma = test: Anti-tumor action to B-16 melanoma; format: in vivo, BDF1 female mice; details: oral, tumor weight at 21st day; for inhibition in vivo at 100 mg/kg/day: 100 mg/kg/day × 3; for inhibition in vivo at 200 mg/kg/day: 200 mg/kg/day × 3; for inhibition in vivo at 400 mg/kg/day: 400 mg/kg/day × 3
Excerpt: B-16 melanoma (1×10^5 cells) was transplanted under skin of BDF1 female mice (age of about 5 weeks), and each of testing compounds was orally dosed at 1st, 5th and 9th day after the transplantation. At 21st day after the transplantation, the mice were killed to measure a weight of the cancerous tumor and to finally determine an inhibition ratio.

L-1210 leukemia = test: Anti-tumor action to L-1210 leukemia; format: in vivo, BDF1 female mice; details: Mus musculus, L1210, oral; for ILS at 250 mg/kg/day: 250 mg/kg/day × 3 (1st, 5th, 9th day); for ILS at 500 mg/kg/day: 500 mg/kg/day × 3 (1st, 5th, 9th day)
Description: L-1210 leukemia cell (1×10^5 cells) was transplanted in a abdominal cavity of BDF1 female mice (20-21 g, age of about 5 weeks), and each of testing compounds was orally dosed in 250 mg/kg or 500 mg/kg at 1st, 5th and 9th day after the transplantation to check days of life of the mice. [formula]

KB cells = test: Suppression of KB cell proliferation in vitro; format: cell-based; details: Homo sapiens, 72 h, 3 days exposure, Trypan Blue dye-exclusion, read-out: KB IC50 (50% inhibition density to tumor cell proliferation)
Description: In a cultivation device (5% CO2, 37° C.), KB cells (1×10^4 cells) were cultivated for 24 hours in a culture tube with 1 ml of Eagle culture medium added 10% ox serum, the used culture medium was thrown away to change with a fresh culture medium (0.9 ml), and then 0.1 ml of a similar culture fluid containing each testing compound prepared by the process as described in the Examples was added to cultivate the same for further 3 days. Thereafter, living cells were dyed with Tripan Blue and measured same through a dye-exclusion method.
A control was treated in a manner similar to the above, except that a culture fluid containing no compound of the invention was added.
50% inhibition density (IC50) to the tumor cell proliferation was decided through the tests between the testing group and the control group to obtain results as shown in following Table 1.

Lewis lung carcinoma = test: Anti-tumor action to Lewis lung carcinoma (primary tumor weight and metastasis); format: in vivo, BDF1 mice; details: Mus musculus, po, 504 h
Excerpt: Lewis lung carcinoma (1×10^5 cells) was transplanted under skin of right ear of BDF1 mice (age of about 5 weeks), and each of testing compounds was orally dosed 10 times from 1st to 10th day after the transplantation. At 21st day after the transplantation, the mice were killed to measure a weight of the primarly tumor and to extract a lung. The lung was fixed in a conventional manner to count a number of metastasis on cancerous cells with use of a stereomicroscope having a low magnification. An anti-tumor action of each compound was expressed with an inhibition in weight of the primarly tumor and an inhibition of the metastasis.

[1] = Mus musculus, B16, 504 h, read-out: B-16 melanoma Inhibition ratio
[2] = Mus musculus, B16, 504 h, 125 mg/kg/day × 3, read-out: B-16 melanoma Inhibition ratio

| Compound | B-16 melanoma Inhibition ratio (B-16 melanoma; 125 mg/kg/day × 3) [%] | B-16 melanoma Inhibition ratio (B-16 melanoma; 250 mg/kg/day × 3) [%] | ILS at 250 mg/kg/day (L-1210 leukemia; read-out: L-1210 ILS) [%] | ILS at 250 mg/kg/day (L-1210 leukemia; read-out: L-1210 Judgement) [%] | ILS at 500 mg/kg/day (L-1210 leukemia; read-out: L-1210 ILS) [%] | ILS at 500 mg/kg/day (L-1210 leukemia; read-out: L-1210 Judgement) [%] | IC50 (KB cells) [mg/L] | also measured |
| --- | --- | --- | --- | --- | --- | --- | --- | --- |
| CCCC[Si](C)(C)CCCSCCCNC(=O)n1cc(F)c(=O)[nH]c1=O [Example 15, N-[3-[[3-(Butyldimethylsilyl)propyl]thio]propyl]-5-fluoro-3,4-dihydro-2,4-dioxo-1(2H)-pyrimidinecarboxamide] | 69.5 | 88.5 | 26 | 25 to 50 | 62 | 50 to 100 |  | colon-38 Inhibition ratio (Colon-38 carcinoma; 323 mg/kg/day × 3): 92.3% |
| CCCCCCCC[Si](C)(C)CCSCCNC(=O)n1cc(F)c(=O)[nH]c1=O [Example 4, N-[2-[[2-(Dimethyloctylsilyl)ethyl]thio]ethyl]-5-fluoro-3,4-dihydro-2,4-dioxo-1(2H)-pyrimidinecarboxamide] |  |  | 12 | < 25 | 38 | 25 to 50 | 20 (≈ 46.3 µM) | colon-38 Inhibition ratio (Colon-38 carcinoma; 345 mg/kg/day × 3): 80.0%; inhibition in vivo at 32 mg/kg/day (Lewis lung carcinoma; 32 mg/kg/day × 10, 21st day, read-out: Inhibition Ratio weight LLC): 4.6%; inhibition in vivo at 32 mg/kg/day (Lewis lung carcinoma; 32 mg/kg/day × 10, lung, 21st day, read-out: Inhibition Ratio metastasis): 76.2%; inhibition in vivo at 64 mg/kg/day (Lewis lung carcinoma; 64 mg/kg/day × 10, 21st day, read-out: Inhibition Ratio weight LLC): 18%; inhibition in vivo at 64 mg/kg/day (Lewis lung carcinoma; 64 mg/kg/day × 10, lung, 21st day, read-out: Inhibition Ratio metastasis): 97.5% |
| C[Si](C)(CCSCCCNC(=O)n1cc(F)c(=O)[nH]c1=O)c1ccccc1 [Example 18, N-[3-[[2-(Dimethylphenylsilyl)ethyl]thio]propyl]-5-fluoro-3,4-dihydro-2,4-dioxo-1(2H)-pyrimidinecarboxamide] |  |  |  |  |  |  |  | inhibition in vivo at 328 mg/kg/day (Colon-38 carcinoma; Mus musculus, 672 h, 328 mg/kg/day × 3, read-out: colon-38 Inhibition ratio): 71.3%; inhibition in vivo at 100 mg/kg/day (B-16 melanoma; [1]): 55.2%; inhibition in vivo at 200 mg/kg/day (B-16 melanoma; [1]): 46.7%; inhibition in vivo at 400 mg/kg/day (B-16 melanoma; [1]): 29.6% |
| CC(C)[Si](C)(C)CCCSCCNC(=O)n1cc(F)c(=O)[nH]c1=O [Example 12, 5-Fluoro-3,4-dihydro-N-[2-[[3-(isopropyldimethylsilyl)propyl]thio]ethyl]-2,4-dioxo-1(2H)-pyrimidinecarboxamide] |  |  | 24 | < 25 | 70 | 50 to 100 | 15 (≈ 39.9 µM) | inhibition in vivo at 338 mg/kg/day (Colon-38 carcinoma; Mus musculus, 672 h, 338 mg/kg/day × 3, read-out: colon-38 Inhibition ratio): 97.3%; inhibition in vivo at 125 mg/kg/day (B-16 melanoma; [2]): 34.2%; inhibition in vivo at 250 mg/kg/day (B-16 melanoma; Mus musculus, B16, 504 h, 250 mg/kg/day × 3, read-out: B-16 melanoma Inhibition ratio): 37.9% |
| C[Si](CCSCCNC(=O)n1cc(F)c(=O)[nH]c1=O)(c1ccccc1)c1ccccc1 [Example 7, 5-Fluoro-3,4-dihydro-N-[2-[[2-(methyldiphenylsilyl)ethyl]thio]ethyl]-2,4-dioxo-1(2H)-pyrimidinecarboxamide] |  |  | 11 | < 25 | 11 | < 25 | 4 (≈ 8.74 µM) | inhibition in vivo at 366 mg/kg/day (Colon-38 carcinoma; Mus musculus, 672 h, 366 mg/kg/day × 3, read-out: colon-38 Inhibition ratio): 32.2%; inhibition in vivo at 34 mg/kg/day (Lewis lung carcinoma; 34 mg/kg/day × 10, 21st day, read-out: Inhibition Ratio weight LLC): 31%; inhibition in vivo at 34 mg/kg/day (Lewis lung carcinoma; 34 mg/kg/day × 10, lung, 21st day, read-out: Inhibition Ratio metastasis): 67.1%; inhibition in vivo at 68 mg/kg/day (Lewis lung carcinoma; 68 mg/kg/day × 10, 21st day, read-out: Inhibition Ratio weight LLC): 25%; inhibition in vivo at 68 mg/kg/day (Lewis lung carcinoma; 68 mg/kg/day × 10, lung, 21st day, read-out: Inhibition Ratio metastasis): 87.7% |
| CC(C)(C)[Si](C)(C)CCCSCCNC(=O)n1cc(F)c(=O)[nH]c1=O [Example 13, N-[2-[[3-(t-Butyldimethylsilyl)propyl]thio]ethyl]-5-fluoro-3,4-dihydro-2,4-dioxo-1(2H)-pyrimidinecarboxamide] |  | 43.1 | 10 | < 25 | 67 | 50 to 100 | 13 (≈ 33.4 µM) | colon-38 Inhibition ratio (Colon-38 carcinoma; 311 mg/kg/day × 3): 81.0%; inhibition in vivo at 125 mg/kg/day (B-16 melanoma; [2]): 38% |
| CCCC[Si](C)(C)CCSCCCNC(=O)n1cc(F)c(=O)[nH]c1=O [Example 17, N-[3-[[2-(Butyldimethylsilyl)ethyl]thio]propyl]-5-fluoro-3,4-dihydro-2,4-dioxo-1(2H)-pyrimidinecarboxamide] |  |  |  |  |  |  |  | inhibition in vivo at 312 mg/kg/day (Colon-38 carcinoma; Mus musculus, 672 h, 312 mg/kg/day × 3, read-out: colon-38 Inhibition ratio): 97.4%; inhibition in vivo at 100 mg/kg/day (B-16 melanoma; [1]): 54.3%; inhibition in vivo at 200 mg/kg/day (B-16 melanoma; [1]): 16.3%; inhibition in vivo at 400 mg/kg/day (B-16 melanoma; [1]): 34.8% |
| C[Si](C)(CCCSCCCNC(=O)n1cc(F)c(=O)[nH]c1=O)c1ccccc1 [Example 16, N-[3-[[3-(Dimethylphenylsilyl)propyl]thio]propyl]-5-fluoro-3,4-dihydro-2,4-dioxo-1(2H)-pyrimidinecarboxamide] | 82.2 | 70.5 | 23 | < 25 | 86 | 50 to 100 |  | colon-38 Inhibition ratio (Colon-38 carcinoma; 339 mg/kg/day × 3): 97.9% |
| CC(C)(C)[Si](C)(C)CCCSCCCNC(=O)n1cc(F)c(=O)[nH]c1=O [Example 14, N-[3-[[3-(t-Butyldimethylsilyl)propyl]thio]propyl]-5-fluoro-3,4-dihydro-2,4-dioxo-1(2H)-pyrimidinecarboxamide] | 55.2 | 46.3 | 19 | < 25 | 68 | 50 to 100 |  | colon-38 Inhibition ratio (Colon-38 carcinoma; 323 mg/kg/day × 3): 90.1% |
| CC(C)[Si](C)(C)CCSCCCNC(=O)n1cc(F)c(=O)[nH]c1=O [Example 9, 5-Fluoro-3,4-dihydro-N-[3-[[2-(isopropyldimethylsilyl)ethyl]thio]propyl]-2,4-dioxo-1(2H)-pyrimidinecarboxamide] | 17.6 | 19.4 | 45 | 25 to 50 | 80 | 50 to 100 | 15 (≈ 39.9 µM) | colon-38 Inhibition ratio (Colon-38 carcinoma; 338 mg/kg/day × 3): 98.4% |
| CC(C)[Si](C)(C)CCCSCCCNC(=O)n1cc(F)c(=O)[nH]c1=O [Example 11, 5-Fluoro-3,4-dihydro-N-[3-[[3-(isopropyldimethylsilyl)propyl]thio]propyl]-2,4-dioxo-1(2H)-pyrimidinecarboxamide] | 32.8 | 45.7 | 18 | < 25 | 81 | 50 to 100 | 13 (≈ 33.4 µM) | colon-38 Inhibition ratio (Colon-38 carcinoma; 350 mg/kg/day × 3): 90.3% |
